Assay results as given in patent publication US20250011445A1 (priority 2020, published 2025).
Where two headings read alike, the source gives them in different places. *1 amine or outer side, *2 acyl side, *3 side chain or, on linkers, in order; H or OH if unused. Where a SMILES comes first, the peptide text is derived from it. Bridges are numbered along the chain shown (N, C = ends). Roman numbers before positions name the chains, in order. [ ]: non-standard residue; d: D form. The star is where a group is joined. Hexamethylenediamine = C(CCCN[*:2])CCN[*:1]; Dip = N[C@H](C(=O)O)C(c1ccccc1)c1ccccc1; Chg = N[C@H](C(=O)O)C1CCCCC1; NMeA = CN[C@@H](C)C(=O)O; Cbz = O=C(OCc1ccccc1)*; CH2F = FC*

Legend:
[1] = test system: Primary human lung fibroblasts (MRC5 cells); test: Death ligand-induced cell death in MRC5 cells, Sytox green, Incucyte; format: cell-based; details: for inhibition of TRAIL-induced cell death: MRC5 cells, FIG. 5
[2] = test system: Human pancreatic ductal epithelial cells (HPDECs); test: Death ligand-induced cell death in HPDECs, Sytox green, Incucyte; format: cell-based
[3] = test system: Tnfr1KOHoil-1E-KO mice; test: Cell death-driven lethal skin inflammation (dermatitis) model, Tnfr1KO Hoil-1E-KO mice; format: in vivo; details: treated once inflammation has been initiated (from 30 days onwards)
[4] = test system: reovirus 1/L (R1/L); details: non-therapeutic inhibition; BOOP model and ARDS model; cited from earlier work
[5] = test system: Lung endothelial cells (LECs); format: cell-based, mouse; details: for sensitivity of cells to death ligand-induced cell death: 1 μg/ml Death Ligand, with zVAD
[6] = test system: NIH3T3 cells; test: Death ligand-induced cell death in NIH3T3 cells, Sytox green, Incucyte; format: cell-based, mouse; details: in presence of zVAD-fmk
[7] = test system: MRC5 cells; test: Western blot of cell lysates of IFN-treated MRC5 cells; format: cell-based, human; details: IFNs for 24 h
Description: FIG. 6: MRC5 cells were treated with the indicated IFNs for 24 h before cells were lysed and cell lysates were analysed for presence of the indicated proteins by western blotting.

With `CN[C@@H](C)C(=O)N[C@H](C(=O)N1CCC[C@H]1C(=O)N[C@H](C(=O)NCCCCCCNC(=O)[C@@H](NC(=O)[C@@H]1CCCN1C(=O)[C@@H](NC(=O)[C@H](C)NC)C1CCCCC1)C(c1ccccc1)c1ccccc1)C(c1ccccc1)c1ccccc1)C1CCCCC1` [BV6] (I: H-[NMeA][Chg]P[Dip] / II: H-[NMeA][Chg]P[Dip]; linker I:C-II:C via Hexamethylenediamine) the “toxicity in combination with TRAIL, IFN-gamma alone or IFN-gamma and TRAIL” value [1] was “enhanced toxicity” and the “sensitisation of cells by IAP antagonist alone” value ([1]; BV6 alone, FIG. 9) was “did not sensitise these cells”.

In the case of `CN1C(=O)NC(Cc2c[nH]c3c(Cl)cccc23)C1=O` (stereo not shown) [Nec-1s, reference compound], the “inhibition of TRAIL-induced cell death” value [1] is reported as “could not be blocked” and the “inhibition of cell death induced by TRAIL in combination with IFN-gamma” value [2] is reported as “delayed the death of HPDECs induced by TRAIL in combination with IFN-gamma, it could not prevent it”.

For `C[C@]12C=CC(=O)C=C1CC[C@H]1[C@@H]3C[C@@H](O)[C@](O)(C(=O)CO)[C@@]3(C)C[C@H](O)[C@@]12F` [Triamcinolone], the “ongoing skin inflammation / skin lesions, therapeutic treatment” value [3] was “insufficient to achieve a meaningful therapeutic effect”.

In the case of `CC[C@H](C)[C@H](NC(=O)OCc1ccccc1)C(=O)N[C@@H](CCC(=O)OC)C(=O)N[C@H](C(=O)N[C@@H](CC(=O)OC)C(=O)CF)[C@@H](C)O` [zIETD-fmk] (Cbz-IE(OMe)TD(OMe)-CH2F), the “aberrant cell death, inflammation and fibrosis in lung tissue” value [4] is given as “reduces aberrant cell death, inflammation and fibrosis in lung tissue”.

With `COC(=O)C[C@H](NC(=O)[C@H](C)NC(=O)[C@@H](NC(=O)OCc1ccccc1)C(C)C)C(=O)CF` [zVAD-fmk, reference compound] (Cbz-Val-Ala-Asp(OMe)-CH2F) the “dependence of observed cell death on caspase inhibition” value ([5]; all death ligands) was “required inhibition of caspases by zVAD”, the “inhibition of cell death induced by the different combinations (BV6, TRAIL, IFN-gamma)” value ([1]; FIG. 9) was “completely inhibited” and the “inhibition of TRAIL-induced cell death” value [1] was “completely blocked”. For the same molecule, the “inhibition of cell death induced by TRAIL in combination with IFN-gamma” value ([2]; HPDECs) was “delayed the death of HPDECs induced by TRAIL in combination with IFN-gamma, it could not prevent it”.

For IFN-gamma: type II IFN, the “effect of IFN pre-treatment on sensitivity to death ligand-induced cell death” value ([5]; IFN overnight) was “sensitised these cells to FasL-mediated death”, the “sensitisation to death induction by TRAIL or FasL” value ([6]; IFN pretreatment 24 hr, 1 μg/ml Death Ligand) was “significantly sensitised them to death induction by TRAIL or FasL” and the “cell death induced by IFN alone” value ([6]; without death ligand) was “sufficient to significantly induce cell death”. The “FN14 expression (western blot)” value [7] was “upregulation of FN14”, the “MLKL expression (western blot)” value [7] was “strongly upregulated” and the “effect of IFN pre-treatment on sensitivity to TRAIL-induced cell death” value ([1]; IFN overnight, then TRAIL 1 μg/ml) was “did not increase their sensitivity to cell death induction by TRAIL”. The “effect of IFN pre-treatment on sensitivity to TRAIL-induced cell death” value ([2]; IFN overnight, then TRAIL 100 ng/ml) was “did not increase their sensitivity to cell death induction by TRAIL” and the “effect of IFN pre-treatment on kinetics of TRAIL-induced cell death” value ([2]; compared to TRAIL alone) was “accelerated TRAIL-induced cell death”.

B1: TRAIL: Death Ligand, also known as Apo2L (protein, UniProt P50591 1-281, looked up)
Tumor necrosis factor ligand …: MAMMEVQGGPSLGQTCVLIVIFTVLLQSLCVAVTYVYFTNELKQMQDKYSKSGIACFLKEDDSYWDPNDEESMNSPCWQVKWQLRQLVRKMILRTSEETISTVQEKQQNISPLVRERGPQRVAAHITGTRGRSNTLSSPNSKNEKALGRKINSWESSRSGHSFLSNLHLRNGELVIHEKGFYYIYSQTYFRFQEEIKENTKNDKQMVQYIYKYTSYPDPILLMKSARNSCWSKDAEYGLYSIYQGGIFELKENDRIFVSVTNEHLIDMDHEASFFGAFLVG
For B1, the “sensitivity of cells to death ligand-induced cell death” value (“sensitivity of cells” for short) [5] was “highly sensitive to cell death induction”, the “sensitivity of cells” value ([1]; 1 μg/ml Death Ligand) was “exquisitely sensitive to TRAIL-induced apoptosis” and the “sensitivity of cells” value ([2]; 100 ng/ml Death Ligand) was “exquisitely sensitive to TRAIL-induced apoptosis”.

B2: FasL: Death Ligand, Fas ligand (protein, UniProt P48023 130-281, looked up)
Tumor necrosis factor ligand …: QIGHPSPPPEKKELRKVAHLTGKSNSRSMPLEWEDTYGIVLLSGVKYKKGGLVINETGLYFVYSKVYFRGQSCNNLPLSHKVYMRNSKYPQDLVMMEGKMMSYCTTGQMWARSSYLGAVFNLTSADHLYVNVSELSLVNFEESQTFFGLYKL
For B2, the “sensitivity of cells” value [5] was “relatively insensitive”.
